SMILES strings stand for the structures.

The values that follow come from BindingDB's records for patent US20250059196 (Shanghai Hansoh Biomedical, 2025).

This assay concerns the target T1, Mucosa-associated lymphoid tissue lymphoma translocation protein 1 (Homo sapiens, UniProt Q9UDY8).
T1 sequence (Q9UDY8 whole entry): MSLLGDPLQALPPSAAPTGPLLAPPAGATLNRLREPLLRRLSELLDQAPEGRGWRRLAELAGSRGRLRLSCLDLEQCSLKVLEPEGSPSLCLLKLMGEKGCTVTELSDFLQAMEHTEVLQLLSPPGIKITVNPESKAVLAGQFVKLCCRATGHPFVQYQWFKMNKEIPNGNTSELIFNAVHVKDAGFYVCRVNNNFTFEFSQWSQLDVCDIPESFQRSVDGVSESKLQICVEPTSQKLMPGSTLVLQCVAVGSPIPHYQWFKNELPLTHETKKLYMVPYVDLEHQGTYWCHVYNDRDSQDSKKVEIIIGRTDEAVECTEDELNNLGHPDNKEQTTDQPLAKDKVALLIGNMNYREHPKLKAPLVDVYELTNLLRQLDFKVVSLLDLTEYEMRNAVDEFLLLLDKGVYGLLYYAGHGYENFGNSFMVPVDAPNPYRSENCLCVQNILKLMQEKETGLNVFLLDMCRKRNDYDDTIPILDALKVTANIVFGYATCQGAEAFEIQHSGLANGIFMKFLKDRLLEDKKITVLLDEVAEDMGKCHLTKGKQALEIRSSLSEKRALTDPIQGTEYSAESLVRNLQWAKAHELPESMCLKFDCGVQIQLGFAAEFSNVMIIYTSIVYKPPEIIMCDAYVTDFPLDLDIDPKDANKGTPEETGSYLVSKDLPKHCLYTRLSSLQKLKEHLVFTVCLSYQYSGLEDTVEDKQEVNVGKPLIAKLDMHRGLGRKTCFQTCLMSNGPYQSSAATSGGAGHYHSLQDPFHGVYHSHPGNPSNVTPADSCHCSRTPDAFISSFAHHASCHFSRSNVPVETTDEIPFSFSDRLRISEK
Briefly: MALT1 Enzyme Activity Assay. How it is done: The compound and the enzyme were pre-incubated at room temperature for 50 min. The substrate was then added and the reaction was carried out for 4 h.
The compound `O=C(Nc1cnc(-n2nccn2)c(C(F)(F)F)c1)c1cnn(-c2cnc3c4c(cccc24)C(=O)N3)c1C1CC1` [US20250059196, Example 78] had a concentration for half-maximal inhibition (IC50) of 35 nM.

For `O=C(Nc1cnc(-c2nccs2)c(C(F)(F)F)c1)c1cnn(-c2ccc3c4c(cccc24)C(=O)N3)c1C(F)(F)F` [US20250059196, Example 33], 46 nM corresponded to half-maximal inhibition (IC50).

Regarding `O=C(Nc1cnc(-n2cccn2)c(C(F)(F)F)c1)c1cnn(-c2ccc3c4c(cccc24)C(=O)N3)c1C(F)(F)F` [US20250059196, Example 31], the concentration for half-maximal inhibition (IC50) is 40 nM.

For the compound `O=C(Nc1cnc(-c2ncco2)c(C(F)(F)F)c1)c1cnn(-c2ccc3c4c(cccc24)C(=O)N3)c1C(F)(F)F` [US20250059196, Example 34], the midpoint of inhibition, the IC50, lay at 32 nM.

For the compound `O=C(Nc1cnc(-n2ccnn2)c(C(F)(F)F)c1)c1cnn(-c2ccc3c4c(cccc24)C(=O)N3)c1C(F)(F)F` [US20250059196, Example 36], the IC50 was found to be 53 nM.

Consider `O=C(Nc1cnc(N2CCC2)c(Cl)c1)c1cnn(-c2ccc3c4c(cccc24)C(=O)N3)c1C(F)(F)F` [US20250059196, Example 48], for which it took 140 nM to reach half-maximal inhibition (IC50).

As for `O=C(Nc1ccc(-n2nccn2)c(C(F)(F)F)c1)c1cnn(-c2cnc3c4c(cccc24)C(=O)N3)c1C(F)(F)F` [US20250059196, Example 73], 191 nM corresponded to half-maximal inhibition (IC50).

In the case of `O=C(Nc1cnc(-n2cccn2)c(C(F)(F)F)c1)c1cnn(-c2cnc3c4c(cccc24)C(=O)N3)c1C(F)(F)F` [US20250059196, Example 69], 81 nM corresponded to half-maximal inhibition (IC50).

The compound `CCc1cc(-n2ncc(C(=O)Nc3ccnc(C(F)(F)F)c3)c2C(F)(F)F)c2cccc3c2c1NC3=O` [US20250059196, Example 89] had a half-inhibitory concentration (IC50) of 106 nM.

`N#Cc1ccnn1-c1ncc(NC(=O)c2cnn(-c3ccc4c5c(cccc35)C(=O)N4)c2C(F)(F)F)cc1C(F)(F)F` [US20250059196, Example 32]: half-maximal inhibition (IC50) required 123 nM.

On to `O=C(Nc1ccc(C(=O)N2CCCC2)c(C(F)(F)F)c1)c1cnn(-c2ccc3c4c(cccc24)C(=O)N3)c1C(F)(F)F` [US20250059196, Example 52], for which 104 nM corresponded to half-maximal inhibition (IC50).

The compound `CS(C)(=O)=Nc1ncc(NC(=O)c2cnn(-c3ccc4c5c(cccc35)C(=O)N4)c2C(F)(F)F)cc1C(F)(F)F` [US20250059196, Example 30] returned a half-inhibitory concentration (IC50) of 141 nM.

The compound `O=C(Nc1ccc(-n2cccn2)c(C(F)(F)F)c1)c1cnn(-c2cnc3c4c(cccc24)C(=O)N3)c1C(F)(F)F` [US20250059196, Example 74] returned a 50% inhibitory concentration (IC50) of 196 nM.

Take `O=C(Nc1cnc(-n2nccn2)c(C(F)(F)F)c1)c1cnn(-c2ncc3c4c(cccc24)C(=O)N3)c1C(F)(F)F` [US20250059196, Example 87]: the half-inhibitory concentration (IC50) stood at 84 nM.

Take `Cc1nc(-c2ncc(NC(=O)c3cnn(-c4ccc5c6c(cccc46)C(=O)N5)c3C(F)(F)F)cc2C(F)(F)F)oc1C` [US20250059196, Example 35]: the IC50 worked out at 59 nM.

For the compound `O=C(Nc1ccc(-n2cccn2)c(C(F)(F)F)c1)c1cnn(-c2ccc3c4c(cccc24)C(=O)N3)c1C(F)(F)F` [US20250059196, Example 51], the IC50 came to 47 nM.

`O=C(Nc1ccc(-n2nccn2)c(Cl)c1)c1cnn(-c2cnc3c4c(cccc24)C(=O)N3)c1C(F)(F)F` [US20250059196, Example 75] showed an IC50 of 24 nM.

For orientation: IC50 means the concentration needed to halve the response being measured. Read a high IC50 as lower potency.
